Measured values from ChEMBL document CHEMBL3745631, “Discovery of highly potent and selective Bruton's tyrosine kinase inhibitors: Pyridazinone analogs with improved metabolic stability” (Bioorg Med Chem Lett, 2016).

Legend:
[1] = target: Casein kinase I isoform gamma-2 (Homo sapiens) (UniProt P78368); test: Inhibition of CK1 gamma2 (unknown origin) at 1 uM
[2] = target: Leucine-rich repeat serine/threonine-protein kinase 2 (Homo sapiens) (UniProt Q5S007); test: Inhibition of LRRK2 (unknown origin) at 1 uM
[3] = target: Serine/threonine-protein kinase Nek6 (Homo sapiens) (UniProt Q9HC98); test: Inhibition of NEK6 (unknown origin) at 1 uM
[4] = target: Cyclin-dependent kinase 7/ cyclin H (Homo sapiens) (UniProt P51946+P50613); test: Inhibition of CDK7/cyclinH (unknown origin) at 1 uM; format: protein-complex assay
[5] = target: Phosphatidylinositol 4,5-bisphosphate 3-kinase catalytic subunit gamma isoform (Homo sapiens) (UniProt P48736); test: Inhibition of PI3K-G (unknown origin) at 1 uM
[6] = target: Tyrosine-protein kinase Tec (Homo sapiens) (UniProt P42680); test: Inhibition of TEC (unknown origin) at 1 uM
[7] = test system: Salmonella typhimurium; test: Genotoxicity in Salmonella typhimurium TA100 by Ames test in presence of S9 fraction; format: toxicity, organism-based; settings: salmonella enterica subsp. enterica serovar typhimurium
[8] = target: Cyclin-dependent kinase 1/cyclin B1 (Homo sapiens) (UniProt P06493+P14635); test: Inhibition of CDK1/cyclinB (unknown origin) at 1 uM; format: protein-complex assay
[9] = target: Epithelial discoidin domain-containing receptor 1 (Homo sapiens) (UniProt Q08345); test: Inhibition of DDR1 (unknown origin) at 1 uM
[10] = target: Protein kinase C epsilon type (Homo sapiens) (UniProt Q02156); test: Inhibition of PKCepsilon (unknown origin) at 1 uM
[11] = target: Serine/threonine-protein kinase 4 (Homo sapiens) (UniProt Q13043); test: Inhibition of MST1 (unknown origin) at 1 uM
[12] = target: cAMP-dependent protein kinase catalytic subunit PRKX (Homo sapiens) (UniProt P51817); test: Inhibition of PrKX (unknown origin) at 1 uM
[13] = target: Death-associated protein kinase 1 (Homo sapiens) (UniProt P53355); test: Inhibition of DAPK1 (unknown origin) at 1 uM
[14] = target: Vascular endothelial growth factor receptor 3 (Homo sapiens) (UniProt P35916); test: Inhibition of Flt4 (unknown origin) at 1 uM
Vascular endothelial growth factor receptor 3 (Homo sapiens), sequence (P35916 whole entry): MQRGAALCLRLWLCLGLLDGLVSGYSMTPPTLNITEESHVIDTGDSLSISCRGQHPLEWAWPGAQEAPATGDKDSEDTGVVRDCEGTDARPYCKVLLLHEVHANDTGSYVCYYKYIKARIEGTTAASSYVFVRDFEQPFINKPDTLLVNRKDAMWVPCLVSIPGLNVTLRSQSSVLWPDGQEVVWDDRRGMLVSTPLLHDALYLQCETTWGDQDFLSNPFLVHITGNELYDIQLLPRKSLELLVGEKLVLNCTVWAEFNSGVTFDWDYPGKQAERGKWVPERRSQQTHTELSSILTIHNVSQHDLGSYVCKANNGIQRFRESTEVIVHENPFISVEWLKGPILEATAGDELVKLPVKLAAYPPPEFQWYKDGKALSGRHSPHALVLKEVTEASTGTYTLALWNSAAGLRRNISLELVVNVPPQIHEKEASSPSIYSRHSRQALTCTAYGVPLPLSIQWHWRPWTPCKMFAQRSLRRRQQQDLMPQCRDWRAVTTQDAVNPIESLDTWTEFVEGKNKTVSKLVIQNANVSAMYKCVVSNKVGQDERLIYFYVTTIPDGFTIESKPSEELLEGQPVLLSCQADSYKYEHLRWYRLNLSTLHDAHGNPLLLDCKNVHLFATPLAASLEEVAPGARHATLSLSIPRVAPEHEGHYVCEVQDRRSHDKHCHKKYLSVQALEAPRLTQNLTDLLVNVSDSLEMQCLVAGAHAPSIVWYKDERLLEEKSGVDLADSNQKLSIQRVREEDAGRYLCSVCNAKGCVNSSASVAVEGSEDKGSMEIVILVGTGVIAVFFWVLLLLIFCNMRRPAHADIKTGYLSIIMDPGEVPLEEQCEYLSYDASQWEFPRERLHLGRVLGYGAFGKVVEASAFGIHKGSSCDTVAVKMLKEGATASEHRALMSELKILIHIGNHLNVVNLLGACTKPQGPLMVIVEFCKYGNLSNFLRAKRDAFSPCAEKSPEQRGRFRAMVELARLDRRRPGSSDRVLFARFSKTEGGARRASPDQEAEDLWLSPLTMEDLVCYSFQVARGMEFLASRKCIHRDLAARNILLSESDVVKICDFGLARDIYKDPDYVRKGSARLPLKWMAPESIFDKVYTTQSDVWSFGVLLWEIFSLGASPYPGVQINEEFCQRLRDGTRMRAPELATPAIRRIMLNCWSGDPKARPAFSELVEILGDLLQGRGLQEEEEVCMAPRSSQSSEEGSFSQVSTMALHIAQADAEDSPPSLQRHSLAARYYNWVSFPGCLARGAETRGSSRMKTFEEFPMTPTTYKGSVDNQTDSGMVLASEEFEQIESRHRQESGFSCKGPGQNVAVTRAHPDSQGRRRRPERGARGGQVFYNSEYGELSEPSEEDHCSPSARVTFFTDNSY

[15] = target: Homeodomain-interacting protein kinase 4 (Homo sapiens) (UniProt Q8NE63); test: Inhibition of HIPK4 (unknown origin) at 1 uM
[16] = target: Calcium/calmodulin-dependent protein kinase type IV (Homo sapiens) (UniProt Q16566); test: Inhibition of CamK4(unknown origin) at 1 uM
[17] = target: Ribosomal protein S6 kinase alpha-2 (Homo sapiens) (UniProt Q15349); test: Inhibition of Rsk3 (unknown origin) at 1 uM
Ribosomal protein S6 kinase alpha-2 (Homo sapiens), sequence (Q15349 whole entry): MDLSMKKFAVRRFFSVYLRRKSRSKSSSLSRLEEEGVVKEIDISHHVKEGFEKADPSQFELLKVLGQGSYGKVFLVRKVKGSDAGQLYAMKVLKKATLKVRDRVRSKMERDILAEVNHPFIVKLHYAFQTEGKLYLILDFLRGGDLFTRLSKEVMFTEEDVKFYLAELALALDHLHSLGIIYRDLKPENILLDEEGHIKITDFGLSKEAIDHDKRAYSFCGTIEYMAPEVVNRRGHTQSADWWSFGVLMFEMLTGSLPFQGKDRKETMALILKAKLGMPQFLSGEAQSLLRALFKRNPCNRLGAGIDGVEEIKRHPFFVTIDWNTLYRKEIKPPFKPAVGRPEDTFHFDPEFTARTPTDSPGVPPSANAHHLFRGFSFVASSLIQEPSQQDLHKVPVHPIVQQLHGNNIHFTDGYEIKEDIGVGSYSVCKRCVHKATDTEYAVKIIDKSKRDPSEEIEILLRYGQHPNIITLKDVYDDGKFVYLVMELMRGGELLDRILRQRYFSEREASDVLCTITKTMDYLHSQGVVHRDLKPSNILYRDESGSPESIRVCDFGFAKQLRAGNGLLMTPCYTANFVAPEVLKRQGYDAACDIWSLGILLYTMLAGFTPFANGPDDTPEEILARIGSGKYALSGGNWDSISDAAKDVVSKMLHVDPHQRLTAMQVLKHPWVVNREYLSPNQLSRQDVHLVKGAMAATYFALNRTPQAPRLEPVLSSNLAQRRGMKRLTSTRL

[18] = target: Serine/threonine-protein kinase PAK 6 (Homo sapiens) (UniProt Q9NQU5); test: Inhibition of PAK6 (unknown origin) at 1 uM
Serine/threonine-protein kinase PAK 6 (Homo sapiens), sequence (Q9NQU5 whole entry, looked up): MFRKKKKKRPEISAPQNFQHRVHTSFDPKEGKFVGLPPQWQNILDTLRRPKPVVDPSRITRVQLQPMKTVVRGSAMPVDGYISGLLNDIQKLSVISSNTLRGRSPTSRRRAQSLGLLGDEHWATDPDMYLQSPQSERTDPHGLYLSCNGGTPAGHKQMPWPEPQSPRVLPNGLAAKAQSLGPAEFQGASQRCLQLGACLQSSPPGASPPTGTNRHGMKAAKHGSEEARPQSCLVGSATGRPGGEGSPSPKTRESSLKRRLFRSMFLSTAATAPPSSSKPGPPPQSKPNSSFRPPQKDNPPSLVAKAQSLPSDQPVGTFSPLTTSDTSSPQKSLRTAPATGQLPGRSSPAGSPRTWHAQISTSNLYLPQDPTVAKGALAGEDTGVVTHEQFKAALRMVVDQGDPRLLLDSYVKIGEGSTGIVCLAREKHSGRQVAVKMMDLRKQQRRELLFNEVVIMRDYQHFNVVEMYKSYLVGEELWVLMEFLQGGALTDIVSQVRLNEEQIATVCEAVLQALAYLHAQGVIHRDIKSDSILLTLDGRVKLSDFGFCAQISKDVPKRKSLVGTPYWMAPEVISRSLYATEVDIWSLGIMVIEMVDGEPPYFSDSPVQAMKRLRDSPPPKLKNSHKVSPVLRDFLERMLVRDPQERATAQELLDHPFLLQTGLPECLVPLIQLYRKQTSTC

[19] = target: Cyclin-dependent kinase 5/CDK5 activator 1 (Homo sapiens) (UniProt Q00535+Q15078); test: Inhibition of CDK5/p25 (unknown origin) at 1 uM; format: protein-complex assay
[20] = target: Serine/threonine-protein kinase N1 (Homo sapiens) (UniProt Q16512); test: Inhibition of PRK1 (unknown origin) at 1 uM
[21] = target: Activin receptor type-2B (Homo sapiens) (UniProt Q13705); test: Inhibition of ACVR2B (unknown origin) at 1 uM
[22] = target: Testis-specific serine/threonine-protein kinase 1 (Homo sapiens) (UniProt Q9BXA7); test: Inhibition of TSSK1 (unknown origin) at 1 uM
[23] = target: Insulin receptor (Homo sapiens) (UniProt P06213); test: Inhibition of InsR (unknown origin) at 1 uM
[24] = target: Protein kinase C beta type (Homo sapiens) (UniProt P05771); test: Inhibition of PKC beta1 (unknown origin) at 1 uM
[25] = test system: Monocyte; test: Inhibition of IC-induced TNF-alpha release in human monocytes
[26] = target: Serine/threonine-protein kinase Sgk3 (Homo sapiens) (UniProt Q96BR1); test: Inhibition of SGK3 (unknown origin) at 1 uM
Serine/threonine-protein kinase Sgk3 (Homo sapiens), sequence (Q96BR1 whole entry): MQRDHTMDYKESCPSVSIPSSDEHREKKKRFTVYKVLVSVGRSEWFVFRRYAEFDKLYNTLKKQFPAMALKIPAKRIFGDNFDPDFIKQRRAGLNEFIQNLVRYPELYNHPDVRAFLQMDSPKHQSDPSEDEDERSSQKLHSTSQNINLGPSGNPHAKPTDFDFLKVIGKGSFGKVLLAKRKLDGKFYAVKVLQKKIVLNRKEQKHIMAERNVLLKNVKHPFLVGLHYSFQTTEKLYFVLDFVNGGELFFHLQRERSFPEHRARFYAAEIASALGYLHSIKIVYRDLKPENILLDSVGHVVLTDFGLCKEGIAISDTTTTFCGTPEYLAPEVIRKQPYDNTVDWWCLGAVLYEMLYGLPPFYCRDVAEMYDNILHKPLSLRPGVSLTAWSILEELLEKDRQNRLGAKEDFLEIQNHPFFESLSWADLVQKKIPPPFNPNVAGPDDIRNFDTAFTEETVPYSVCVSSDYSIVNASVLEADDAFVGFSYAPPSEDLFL

[27] = target: 3-phosphoinositide-dependent protein kinase 1 (Homo sapiens) (UniProt O15530); test: Inhibition of PDK1 (unknown origin) at 1 uM by direct binding assay
3-phosphoinositide-dependent protein kinase 1 (Homo sapiens), sequence (O15530 whole entry): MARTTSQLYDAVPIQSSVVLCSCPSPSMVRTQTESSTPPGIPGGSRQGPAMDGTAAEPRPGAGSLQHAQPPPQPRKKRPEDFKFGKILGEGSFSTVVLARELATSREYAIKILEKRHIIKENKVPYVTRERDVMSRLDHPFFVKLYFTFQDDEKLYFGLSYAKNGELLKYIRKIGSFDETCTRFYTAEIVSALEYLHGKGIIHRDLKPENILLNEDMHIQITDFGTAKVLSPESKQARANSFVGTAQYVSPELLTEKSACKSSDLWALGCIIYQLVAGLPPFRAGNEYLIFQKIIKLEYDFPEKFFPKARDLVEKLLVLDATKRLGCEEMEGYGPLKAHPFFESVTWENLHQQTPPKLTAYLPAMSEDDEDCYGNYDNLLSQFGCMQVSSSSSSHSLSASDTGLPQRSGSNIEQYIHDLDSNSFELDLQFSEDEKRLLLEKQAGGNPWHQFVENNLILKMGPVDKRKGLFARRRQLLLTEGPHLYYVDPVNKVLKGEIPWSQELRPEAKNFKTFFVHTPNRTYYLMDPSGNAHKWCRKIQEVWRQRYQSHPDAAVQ

[28] = test system: Liver microsome; test: Intrinsic clearance in human liver microsomes at 1 uM by LC-MS/MS analysis in absence of NADPH; format: ADME
[29] = target: CDK2/Cyclin A2 (Homo sapiens) (UniProt P24941+P20248); test: Inhibition of CDK2/cyclinA (unknown origin) at 1 uM; format: protein-complex assay
[30] = target: Inhibitor of nuclear factor kappa-B kinase subunit epsilon (Homo sapiens) (UniProt Q14164); test: Inhibition of IKKepsilon (unknown origin) at 1 uM
Inhibitor of nuclear factor kappa-B kinase subunit epsilon (Homo sapiens), sequence (Q14164 whole entry): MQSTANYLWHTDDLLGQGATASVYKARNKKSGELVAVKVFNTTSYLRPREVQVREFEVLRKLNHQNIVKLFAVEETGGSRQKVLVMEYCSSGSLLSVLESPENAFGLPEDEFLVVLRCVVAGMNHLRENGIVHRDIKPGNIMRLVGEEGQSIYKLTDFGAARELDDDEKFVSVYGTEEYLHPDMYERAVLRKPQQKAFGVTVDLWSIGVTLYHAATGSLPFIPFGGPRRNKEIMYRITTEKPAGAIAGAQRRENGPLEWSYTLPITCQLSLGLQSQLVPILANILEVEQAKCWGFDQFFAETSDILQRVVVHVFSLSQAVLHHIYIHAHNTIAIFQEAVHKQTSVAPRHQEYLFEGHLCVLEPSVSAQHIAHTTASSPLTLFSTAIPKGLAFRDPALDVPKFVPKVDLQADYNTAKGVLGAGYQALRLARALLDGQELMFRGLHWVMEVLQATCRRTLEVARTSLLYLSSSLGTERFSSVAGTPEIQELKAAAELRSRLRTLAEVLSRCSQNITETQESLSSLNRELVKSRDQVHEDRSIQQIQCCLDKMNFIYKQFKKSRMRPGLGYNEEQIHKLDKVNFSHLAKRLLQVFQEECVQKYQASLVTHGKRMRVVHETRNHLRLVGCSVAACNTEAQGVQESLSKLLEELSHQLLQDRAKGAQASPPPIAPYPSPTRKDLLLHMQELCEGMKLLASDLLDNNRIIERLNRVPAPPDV

[31] = target: Inhibitor of nuclear factor kappa-B kinase subunit beta (Homo sapiens) (UniProt O14920); test: Inhibition of IKKbeta (unknown origin) at 1 uM
[32] = target: Protein kinase C theta type (Homo sapiens) (UniProt Q04759); test: Inhibition of PKCtheta (unknown origin) at 1 uM
[33] = target: Ephrin type-A receptor 8 (Homo sapiens) (UniProt P29322); test: Inhibition of EphA8 (unknown origin) at 1 uM
[34] = target: Inhibitor of nuclear factor kappa-B kinase subunit alpha (Homo sapiens) (UniProt O15111); test: Inhibition of IKK alpha (unknown origin) at 1 uM
[35] = target: PAS domain-containing serine/threonine-protein kinase (Homo sapiens) (UniProt Q96RG2); test: Inhibition of PASK (unknown origin) at 1 uM
[36] = target: Dual specificity tyrosine-phosphorylation-regulated kinase 1A (Homo sapiens) (UniProt Q13627); test: Inhibition of DYRK1A (unknown origin) at 1 uM
[37] = test system: Hepatocyte; test: Intrinsic clearance in human hepatocytes at 1 uM by LC-MS/MS analysis; format: ADME, cell-based
[38] = target: Mitogen-activated protein kinase 11 (Homo sapiens) (UniProt Q15759); test: Inhibition of p38 beta (unknown origin) at 1 uM
Mitogen-activated protein kinase 11 (Homo sapiens), sequence (Q15759 whole entry): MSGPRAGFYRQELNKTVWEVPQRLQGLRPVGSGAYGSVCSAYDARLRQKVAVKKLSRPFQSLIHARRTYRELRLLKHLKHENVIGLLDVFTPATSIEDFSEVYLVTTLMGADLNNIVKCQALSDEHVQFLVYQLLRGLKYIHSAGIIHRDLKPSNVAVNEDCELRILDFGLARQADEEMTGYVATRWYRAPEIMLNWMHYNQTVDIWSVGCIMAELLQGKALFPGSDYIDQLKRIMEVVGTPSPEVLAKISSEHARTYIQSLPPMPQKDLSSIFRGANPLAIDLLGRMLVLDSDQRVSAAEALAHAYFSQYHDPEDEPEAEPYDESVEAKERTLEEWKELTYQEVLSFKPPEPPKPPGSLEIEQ

[39] = test system: Salmonella typhimurium; test: Genotoxicity in Salmonella typhimurium TA98 by Ames test in absence of S9 fraction; format: toxicity, organism-based; settings: salmonella enterica subsp. enterica serovar typhimurium
[40] = target: Mitogen-activated protein kinase kinase kinase kinase 2 (GCK) (Homo sapiens) (UniProt Q12851); test: Inhibition of GCK (unknown origin) at 1 uM
[41] = target: Death-associated protein kinase 3 (Homo sapiens) (UniProt O43293); test: Inhibition of ZIPK (unknown origin) at 1 uM
[42] = target: Muscle, skeletal receptor tyrosine-protein kinase (Homo sapiens) (UniProt O15146); test: Inhibition of MusK (unknown origin) at 1 uM
[43] = target: Tyrosine-protein kinase BTK (Mus musculus, UniProt P35991); test: Inhibition of BTK in Balb/c mouse B cells assessed as inhibition of anti-IgM-stimulated CD86 expression by flow cytometry; format: cell-based

## Cc1c(-c2cc(Nc3cc4n(n3)CCN(C)C4)c(=O)[nH]n2)ccc(F)c1NC(=O)c1cc2ccccc2s1
[1]
  inhibition: 1.9%
[2]
  inhibition: 4.7%
[3]
  inhibition: 5.3%
[4]
  inhibition: -7.7%
[5]
  inhibition: 2.5%
[6]
  inhibition: 87.9%
[7]
  Activity: Non-toxic
[8]
  inhibition: 7.3%
[9]
  inhibition: 0.8%
[10]
  inhibition: -6.8%
[11]
  inhibition: -2.6%
[12]
  inhibition: -9.9%
[13]
  inhibition: 0.1%
[14]
  inhibition: 2.7%
[15]
  inhibition: 7.8%
[16]
  inhibition: 2.4%
[17]
  inhibition: -0.6%
[18]
  inhibition: 1.8%
[19]
  inhibition: 2.4%
[20]
  inhibition: -3.7%
[21]
  inhibition: 4.5%
[22]
  inhibition: 0%
[23]
  inhibition: 13.8%
[24]
  inhibition: 0.2%
[25]
  EC50: 37 nM
[26]
  inhibition: -1.3%
[27]
  inhibition: -8%
[28]
  CLH: 6 mL/min/kg
[29]
  inhibition: -0.9%
[30]
  inhibition: -5.8%
[31]
  inhibition: 2.2%
[32]
  inhibition: -6.9%
[33]
  inhibition: 7.2%
[34]
  inhibition: 5.3%
[35]
  inhibition: 6.2%
[36]
  inhibition: 4.8%
[37]
  CLH: < 6 mL/min/kg
[38]
  inhibition: 8.7%
[39]
  Activity: Non-toxic
[40]
  inhibition: -9%
[41]
  inhibition: -2%
[42]
  inhibition: 1.4%
[43]
  IC50: 91 nM
